The source of these data is patent publication US20220242853A1, “MODIFIED CYANINE DYES AND CONJUGATES THEREOF” (BRACCO IMAGING S.P.A., priority 2019, published 2022).

One data set concerns Detroit-562 cells. Description: Tumor uptake by ex vivo optical imaging, orthotopic human head and neck cancer model. Type of data set: in vivo, Balb/c nu/nu mice. The conditions noted are these: ex vivo tongue, 24 hours after iv 3 nmol/mouse. As to the method:
Parallel experiments were performed in an animal model of human head and neck cancer (orthotopic), using Detroit-562 cells, overexpressing in particular integrin receptor αvβ6. Briefly, the human pharyngeal carcinoma cells Detroit-562 (ATCC, CCL-138) were cultured in Eagle's Minimum Essential Medium (EMEM) supplemented with 10% Fetal Bovine Serum (FBS), 2 mM glutamine, 100 IU/mL penicillin, 100 μg/mL streptomycin. Male Balb/c nu/nu mice, 4-6 weeks of age (Charles River Laboratories), underwent orthotopic implantation in the anterior portion of the tongue of about 2.5 million cells suspended in 0.03 mL di EMEM. Mice were housed 4 per cage with food and water ad libitum. Animals were fed with VRF1 (P) sterile diet (Special Diets Services Ltd) up to the end of the acclimation period (5 days). Then, AIN-76a rodent diet irradiated (Research Diets), a special diet that reduces auto-fluorescence, was used up to the end of the experiments. Tumor growth was monitored by longitudinal assessments using a caliper up to the target size of 10-20 mm^3 (7-10 days after cell implantation).
Imaging experiments were performed using the preclinical optical system IVIS Spectrum (Perkin Elmer). Animals were intravenously injected (lateral tail vein) with 3 nmol/mouse, at 24 hours post-administration were euthanized by anesthesia overdose, and the tongues were excised for ex vivo optical imaging. […]

For data set [1], the target named is T1, human recombinant integrin αvβ3 (Homo sapiens, UniProt P05106+P06756).
T1 construct: purchased R&D Systems
Description: Integrin receptor affinity ELISA (vitronectin-coated plates). Type of data set: binding. As to conditions: tested in duplicate; read-out: Receptor affinity (IC50). For orientation: ELISA stands for enzyme-linked immunosorbent assay.

Data set [2] concerns WM-266-4 human melanoma cells. Kind of data set: Cell uptake by flow cytometry (FACS). Type of data set: cell-based. As to the method:
The human melanoma cell line WM-266-4 (ATCC, CRL-1676) was used as in vitro model to assess the cell uptake of representative integrin-binding Compounds 1 and 3, based on the high expression of the integrin receptors, particularly αvβ3, on the membrane of these cells (Capasso et al., PlosOne 2014).
Adherent cells at about 70% confluence were incubated with the compounds 1 or 3 (1 μM) for 2h at 37° C. (5% CO2) in presence of Dulbecco's Modified Eagle's Medium (DMEM) supplemented with 10% FBS, 2 mM glutamine, 100 IU/mL penicillin and 100 μg/mL streptomycin. After two washing steps with PBS, cells were detached using 0.1 mM EDTA in PBS, centrifuged and suspended in buffer (PBS, 0.5% BSA, 0.1% NaN3) for flow cytometry experiments. Fluorescence Activated Cell Sorting (FACS) was used to detect the fluorescence signal within the cells, as measure of cell uptake. Samples were excited with an Argon laser and the emission detected using a 670 nm longpass filter. Values of fluorescence intensity were obtained from the histogram statistic produced by the instrument software.
The residual internalization was calculated by considering the value of fluorescence intensity in absence of the competitor as 100%.
Furthermore, to assess the effect of biological fluids on the cell uptake, parallel experiments were performed incubating the cells with a compounds of the invention in presence of human serum from male AB plasma (Sigma Aldrich, H4522) or human albumin (Sigma Aldrich, A9511). The residual internalization was calculated by considering the value of fluorescence intensity in absence of the serum as 100%. Such uptake assessment also represents an indication of the percentage of compound which is sequestered by the plasma proteins, in particular albumin, when it diffuses through the vascular compartment before reaching the tissue of interest and the particular targeted receptor.

Data set [3] is described as follows: Optical properties: excitation/emission maxima and absolute fluorescence quantum yield. Type of data set: physicochemical. On the procedure: Analysis were performed with a Waters Atlantis dC18 5 μm, 4.6×150 mm column using a gradient of phase A CH3COONH4 10 mM and phase B acetonitrile. Measured mass/charge ratios are listed for each compound. A dual-beam UV-VIS spectrophotometer (Lambda 40, Perkin Elmer) was used to determine the absorbance (Abs) of the compounds of the invention. […] The measurements were performed using an excitation wavelength at maximum absorbance of different dyes, and the sample was excited with a […] Xenon Light Source. Detection was performed by photomultiplier tubes (PMT-NIR) cooled detector or by TBX-04 detector. Dye solutions were carefully prepared to have an absorbance lower than 0.1 (optical densities) to minimize re-absorption phenomena. The compounds of the invention have been characterized in terms of their optical properties in vitro in aqueous medium (i.e., water/PBS pH 7.4) and in a clinical chemistry control serum (Seronorm, Sero SA), mimicking the chemical composition and optical properties of human serum. All dye or dye-conjugate solutions were freshly prepared.

The next data set deals with U87MG cells. Kind of data set: Tumor uptake by optical imaging, subcutaneous human glioblastoma model. Type of data set: in vivo, Balb/c nu/nu mice. As to conditions: iv 1 nmol, 1-2 hours after administration, tumor vs muscle. As to the method: Tumor uptake experiments were carried out in an animal model of human glioblastoma (subcutanous) overexpressing the integrin receptors, particularly αvβ3. Briefly, human glioblastoma U87MG cells (ATCC, HTB-14) were cultured in Eagle's Minimum Essential Medium (EMEM) supplemented with 10% Fetal Bovine Serum (FBS), 2 mM glutamine, 100 IU/mL penicillin, 100 μg/mL streptomycin. Male Balb/c nu/nu mice, 4-6 weeks of age (Charles River Laboratories), underwent subcutaneous implantation (right flank) of about 10 million cells suspended in 0.1 mL of EMEM. Mice were housed 4 per cage with food and water ad libitum. […] Then, AIN-76a rodent diet irradiated (Research Diets), a special diet that reduces auto-fluorescence, was used up to the end of the experiments. Tumor growth was monitored by longitudinal assessments using a caliper up to the target size of 300-600 mm^3 (3-4 weeks after cell implantation). […]
In vivo imaging was performed under gas anesthesia (Sevofluorane 6-8% in oxygen). […] Regions of interest (ROIs) were drawn on the tissues of interest for each fluorescence image at every time point to evaluate signal intensity (expressed as Average Radiant Efficiency). The ratio between the fluorescence signal in the tumor and in the muscle (background tissue) was then calculated to assess the contrast.

As for `CC(CC[N+]1=C(/C=C/C=C/C=C/C=C2/N(CCCCCC(=O)NCCCC[C@@H]3NC(=O)C(Cc4ccccc4)NC(=O)[C@H](CC(=O)O)NC(=O)CNC(=O)[C@H](CCCNC(=N)N)NC3=O)c3ccc(C(=O)NCC(O)C(O)C(O)C(O)CO)cc3C2(C)C)C(C)(C)c2cc(C(=O)NCC(O)C(O)C(O)C(O)CO)ccc21)S(=O)(=O)[O-]` (stereo partly shown) [Compound 1], in the data set with Detroit-562 cells, the Tumor-to-background contrast result is “high tumor-to-background contrast”. Also, the IC50 (as a rule, the concentration that gives 50% inhibition) in data set [1] was 2.96 ± 0.49 nM. Further, the “Residual uptake in the presence of 4% HSA” value in data set [2] (1 μM, 2h at 37° C.) is listed as 70%. In addition, the “Residual cell uptake in presence of human serum” value in data set [2] (1 μM, 2h at 37° C., uptake without serum = 100%) is recorded as 80%. Also, the “Residual uptake in the presence of c(RGDfK) as competitor” value in data set [2] (100 μM c(RGDfK), uptake without competitor = 100%) is given as 10%. Moreover, in data set [3] (PBS pH 7.4), the “Max Em” value came to 786 nm, the “Max Ex” value was found to be 757 nm and the “Φ (absolute fluorescence quantum yield)” value is listed as 9.8%. In addition, the “Φ (absolute fluorescence quantum yield)” value in data set [3] (Seronorm control serum) was found to be 13.0%. For the same compound, the “Tumor-to-background ratio (TBR)” value in the data set on U87MG cells is 2-2.5.
